Data on 32 molecules can be found in ChEMBL document CHEMBL1201862, “PubChem BioAssay data set” (2004).

The source made the active and inactive calls. Rule as the data show it, for most assays here: actives have a measured EC50 and inactives only a lower limit.

Assay [1] addresses T1, Calpain-2 catalytic subunit (Sus scrofa, UniProt P43367).
T1 sequence (P43367 whole entry): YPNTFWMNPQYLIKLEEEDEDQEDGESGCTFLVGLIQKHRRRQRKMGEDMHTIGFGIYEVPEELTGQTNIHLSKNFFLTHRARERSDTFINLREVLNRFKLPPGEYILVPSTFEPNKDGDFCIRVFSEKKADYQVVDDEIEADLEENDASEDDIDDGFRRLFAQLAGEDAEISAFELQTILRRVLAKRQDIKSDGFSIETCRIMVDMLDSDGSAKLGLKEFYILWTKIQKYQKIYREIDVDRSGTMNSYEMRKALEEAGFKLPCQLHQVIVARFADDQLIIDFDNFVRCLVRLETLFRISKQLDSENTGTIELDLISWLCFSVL
The assay is described as follows: m-calpain protease blockers, concentration series – biochemical, fluorogenic peptide substrate, dose response (AID 1420). The class given is functional.

For assay [2], the target named is T2, RNA-binding protein pos-1 (Caenorhabditis elegans, UniProt G5EF15).
T2 sequence (G5EF15 whole entry): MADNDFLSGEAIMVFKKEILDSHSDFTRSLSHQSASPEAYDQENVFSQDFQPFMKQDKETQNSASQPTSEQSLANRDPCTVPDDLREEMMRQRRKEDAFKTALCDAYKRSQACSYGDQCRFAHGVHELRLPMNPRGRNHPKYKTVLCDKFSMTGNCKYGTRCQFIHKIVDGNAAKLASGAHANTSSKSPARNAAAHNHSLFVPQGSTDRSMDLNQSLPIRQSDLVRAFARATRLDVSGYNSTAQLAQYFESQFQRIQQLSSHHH
The assay is described as follows: disruptors of C. elegans POS-1 RNA interaction – biochemical, fluorescence polarization, dose response (AID 1964).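 Also: purified POS-1 fused to maltose binding protein made in E. coli; potency of compounds blocking POS-1 binding to fluorescent RNA.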 On the technique in general: In fluorescence polarisation assays a small probe gives low polarisation when free and higher when bound to something large.

Assay [3] deals with T3, Zinc finger protein mex-5 (Caenorhabditis elegans, UniProt Q9XUB2).
T3 sequence (Q9XUB2 whole entry): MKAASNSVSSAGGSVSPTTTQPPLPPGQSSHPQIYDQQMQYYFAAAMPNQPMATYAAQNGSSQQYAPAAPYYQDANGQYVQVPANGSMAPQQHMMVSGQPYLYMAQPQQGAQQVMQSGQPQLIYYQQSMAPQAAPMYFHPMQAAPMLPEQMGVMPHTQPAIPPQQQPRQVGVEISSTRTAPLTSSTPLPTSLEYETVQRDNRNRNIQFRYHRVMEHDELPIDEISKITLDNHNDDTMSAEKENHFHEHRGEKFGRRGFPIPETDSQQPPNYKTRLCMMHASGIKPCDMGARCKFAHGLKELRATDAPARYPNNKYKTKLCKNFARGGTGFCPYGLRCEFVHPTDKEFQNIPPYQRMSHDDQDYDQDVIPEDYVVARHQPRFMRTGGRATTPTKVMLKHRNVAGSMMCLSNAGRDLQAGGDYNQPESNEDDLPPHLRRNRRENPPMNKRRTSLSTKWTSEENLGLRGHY
The assay is described as follows: potency of MEX-5 RNA-binding blockers – biochemical, C. elegans, fluorescence polarization, dose response (AID 1960).

Assay [4] deals with Luciferin 4-monooxygenase (Photinus pyralis, UniProt P08659). The assay is described as follows: inhibition of purified Photinus pyralis luciferase – biochemical, luminescence, dose response (AID 1891).
Assay [5] in a line: Luminescence Cell-Based Dose Confirmation HTS to Identify Inhibitors of Platelet Dense Granule Release. [Related pubchem assays: 1663 (Primary HTS), 1678 (Summary of Project)]. The class given is functional.
In assay [6] the test system is BJ. The assay is described as follows: BJ-TERT fibroblast viability loss – cell-based, RAS-independent, luminescence, dose response (AID 1933). Format: functional. Conditions: Homo sapiens.
In assay [7] the test system is BJ. The assay is described as follows: cells. The class given is functional, cell-based. Conditions: Homo sapiens.
In assay [8] the test system is BJ. The assay is described as follows: BJ-TERT-LT-ST fibroblast viability loss – cell-based, RAS-independent, luminescence, dose response (AID 1935).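 Also: BJ fibroblasts immortalized with TERT plus LT and ST oncogenes.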 Format: functional. The conditions noted are these: Homo sapiens.
The nature of assay [9]: DRD fibroblast viability loss – cell-based, non-viral oncogenic, luminescence, dose response (AID 1934). Format: functional. The conditions noted are these: Homo sapiens.
The next assay has as its system INS1. The assay is described as follows: INS-1E survival protection against cytokine death – cell-based, luminescence, retest, dose response (AID 449756).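 Also: cell death triggered by IL-1 beta plus TNF-alpha plus IFN-gamma mixture; protective hits raise ATP signal compared with cytokine alone wells.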 The class given is functional. The conditions noted are these: Rattus norvegicus.
Assay [10] deals with T4, Ubiquitin-conjugating enzyme E2 N (Homo sapiens, UniProt P61088).
T4 sequence (P61088 whole entry): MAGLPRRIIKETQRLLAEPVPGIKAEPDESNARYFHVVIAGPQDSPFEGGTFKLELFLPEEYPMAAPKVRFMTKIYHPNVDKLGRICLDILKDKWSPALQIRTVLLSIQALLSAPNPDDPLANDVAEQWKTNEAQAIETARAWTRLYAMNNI
The class given is functional.

The target in assay [11] is FAD-linked sulfhydryl oxidase ALR (Homo sapiens, UniProt P55789). The assay is described as follows: ALR-catalysed DTT oxidation blockers – biochemical, H2O2 detection, luminescence, cherry-pick, dose response (AID 493248).
The nature of assay [12]: cells. The class given is functional, cell-based.
Assay [13] is described as follows: cells. The class given is functional, cell-based. The source holds these as a separate data set.
Assay [14] is described as follows: Luminescence Cell-Based Dose Retest to Confirm Inhibitors of Cancer Stem Cells. [Related pubchem assays (depositor defined):AID2717, AID2721]. The class given is functional. The conditions noted are these: Homo sapiens.
Assay [15] in a line: Trypanosoma cruzi growth suppression in host cells – NIH3T3 host cells, beta-gal luminescence, confirmation (AID 2044).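 Also: intracellular parasites grown in NIH/3T3 mouse fibroblasts as host cells; luminescent beta-galactosidase reporter signal from transgenic T. cruzi replicating inside host cells; inhibitors lower the luminescence signal.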 The class given is functional, cell-based.
Assay [16] in a line: NIH3T3 cell viability loss – ATP luminescence, mouse fibroblasts, counter-screen, dose response (AID 2010).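 Also: cells exposed to compound for about 90 hours before reading.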 The class given is functional, cell-based. A general note: The purpose of a counterscreen is to sort out artefacts and off-target activity.
Assay [17] in a line: microbe, parasite or virus in culture. Conditions: Mycobacterium tuberculosis. The class given is functional.
The nature of assay [18]: viability of uninfected HEp-2 cells – cell-based, HTS, cytotoxicity control for RSV inhibitor project, dose response (AID 2410). Format: functional. Conditions: human respiratory syncytial virus.
The target in a further assay is Cytochrome P450 2D6 (Homo sapiens, UniProt P10635).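 Also: CYP2D6 member of a cytochrome P450 panel assay.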
A further assay has as its target Cytochrome P450 2C9 (Homo sapiens, UniProt P11712).
The nature of assay [19]: cells. Format: functional.

Chain of FAD-linked sulfhydryl oxidase ALR (P55789 whole entry): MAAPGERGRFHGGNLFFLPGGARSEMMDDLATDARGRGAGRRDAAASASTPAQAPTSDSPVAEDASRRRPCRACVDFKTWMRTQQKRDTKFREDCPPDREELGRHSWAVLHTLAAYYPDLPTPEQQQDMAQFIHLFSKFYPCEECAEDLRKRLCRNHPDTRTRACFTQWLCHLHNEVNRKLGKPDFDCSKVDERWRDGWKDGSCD
Chain of Luciferin 4-monooxygenase (P08659 whole entry): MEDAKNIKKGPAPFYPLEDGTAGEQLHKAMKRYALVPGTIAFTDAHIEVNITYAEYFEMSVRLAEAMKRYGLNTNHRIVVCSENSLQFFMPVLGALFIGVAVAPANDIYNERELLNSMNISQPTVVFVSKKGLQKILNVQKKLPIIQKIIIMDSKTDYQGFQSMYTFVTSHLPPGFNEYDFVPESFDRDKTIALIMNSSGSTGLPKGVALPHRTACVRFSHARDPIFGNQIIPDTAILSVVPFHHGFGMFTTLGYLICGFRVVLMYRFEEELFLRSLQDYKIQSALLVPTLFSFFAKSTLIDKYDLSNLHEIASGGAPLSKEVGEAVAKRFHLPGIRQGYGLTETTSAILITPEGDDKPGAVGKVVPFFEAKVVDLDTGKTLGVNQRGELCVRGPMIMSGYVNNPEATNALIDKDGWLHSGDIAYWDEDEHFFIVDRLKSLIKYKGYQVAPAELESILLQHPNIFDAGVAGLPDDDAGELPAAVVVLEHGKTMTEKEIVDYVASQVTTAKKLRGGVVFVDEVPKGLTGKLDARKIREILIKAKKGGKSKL
Chain of Cytochrome P450 2D6 (P10635 whole entry): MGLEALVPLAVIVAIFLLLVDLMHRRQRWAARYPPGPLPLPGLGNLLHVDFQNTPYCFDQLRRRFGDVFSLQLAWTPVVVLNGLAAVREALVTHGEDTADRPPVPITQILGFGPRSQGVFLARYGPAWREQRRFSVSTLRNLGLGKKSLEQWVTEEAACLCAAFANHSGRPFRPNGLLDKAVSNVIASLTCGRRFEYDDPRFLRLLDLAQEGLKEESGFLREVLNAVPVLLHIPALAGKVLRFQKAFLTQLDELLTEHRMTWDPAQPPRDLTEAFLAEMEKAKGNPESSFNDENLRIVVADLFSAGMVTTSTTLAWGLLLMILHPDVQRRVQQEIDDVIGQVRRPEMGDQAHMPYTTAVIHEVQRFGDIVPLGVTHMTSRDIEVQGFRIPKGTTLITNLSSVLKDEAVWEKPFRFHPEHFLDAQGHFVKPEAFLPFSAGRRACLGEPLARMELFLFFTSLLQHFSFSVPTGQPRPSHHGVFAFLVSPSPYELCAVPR
Chain of Cytochrome P450 2C9 (P11712 whole entry): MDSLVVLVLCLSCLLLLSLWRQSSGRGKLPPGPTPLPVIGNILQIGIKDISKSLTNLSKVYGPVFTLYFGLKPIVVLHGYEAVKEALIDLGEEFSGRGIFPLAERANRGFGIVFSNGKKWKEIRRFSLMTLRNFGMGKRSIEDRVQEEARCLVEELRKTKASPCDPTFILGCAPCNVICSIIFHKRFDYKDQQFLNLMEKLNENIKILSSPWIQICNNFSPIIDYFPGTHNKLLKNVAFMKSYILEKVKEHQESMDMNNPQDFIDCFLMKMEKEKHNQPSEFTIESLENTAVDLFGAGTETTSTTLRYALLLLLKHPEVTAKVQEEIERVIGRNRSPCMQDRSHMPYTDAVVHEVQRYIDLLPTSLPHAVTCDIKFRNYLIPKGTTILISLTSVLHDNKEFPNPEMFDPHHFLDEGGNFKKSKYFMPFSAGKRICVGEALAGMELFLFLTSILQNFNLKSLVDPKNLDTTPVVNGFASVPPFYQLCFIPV

The term IC50 denotes the concentration that gives 50% inhibition. In the case of `CC(=O)O/N=C1\C(=O)N(Cc2ccc(C)cc2)c2ccccc21`, in assay [1], the half-maximal inhibitory concentration (IC50) is reported as 15.5 µM (not active).
For orientation: EC50 means the concentration that produces a half-maximal response. In the case of `CCCCOC(=O)c1ccc(N=Nc2c(O)nc(O)c(C#N)c2C)cc1`, the EC50 in assay [2] was > 300 µM (not active); in assay [3], > 300 µM (inconclusive); in assay [4], > 112 µM (not active); in [5] it was > 112 µM (not active).
The AC50 is the concentration at which the activity in the assay is half-maximal. Take `Cc1ccc(C)c(NS(=O)(=O)c2ccc(OCC(=O)NCc3cccnc3)cc2)c1`: the EC50 was > 150 µM (not active) in the assay with BJ [6], 18.1 µM (active) in the assay on BJ [7], > 150 µM (inconclusive) with BJ [8] and > 150 µM (not active) in [9]. Further, the AC50 in the assay on INS1 was 8.78 µM (active).
As to `Cc1ccc2c(c1)N(C(=O)CCC(=O)NCCCN1CCC(Cc3ccccc3)CC1)CCO2`, the IC50 in [10] is > 20 µM (inactive). Moreover, the AC50 in the assay with INS1 is 20.4 µM (active).
For the molecule `O=C(c1ccc(C[S+]([O-])Cc2ccc(Cl)cc2)o1)N1CCN(c2ccccc2)CC1` (centres undefined), the AC50 in [11] is > 100 µM (inactive).
Turning to `COc1cccc(/C=N/NC(=O)c2ccc(-c3ccccc3)cc2)c1O`, the results for the EC50 in the assay “cells [12]” and in “cells [13]” were 166 µM (active) and 56.6 µM (active), respectively. For the same molecule, the results for the AC50 (in [14]; in the assay on INS1) were 3.26 µM (active) and 3.83 µM (active), respectively.
For `COc1ccc(/C=N/NC(=O)CCc2c(C)n[nH]c2C)cc1O`, in [11], the concentration at half-maximal activity (AC50) is 3.71 µM (active).
Turning to `CCCC1=Nc2cc(C(=O)N3CCC(C(=O)OCC)CC3)ccc2Sc2ccccc21`, the EC50 is > 150 µM (not active) in the assay on BJ [6], > 150 µM (not active) with BJ [7], > 150 µM (not active) in the assay on BJ [8] and 126 µM (active) in assay [9].
Turning to `COc1ccc(C(=O)NCCc2nc3cc([N+](=O)[O-])ccc3n2C)cc1`, the EC50 in “cells [12]” and in “cells [13]” was > 350 µM (not active) each time.
Take `CCOC(=O)c1c(N)sc(C(=O)N2CCCCCC2)c1C`: the IC50 in assay [1] is recorded as > 50 µM (not active).
Take `COc1cc(NC(=O)CN2c3ccccc3CC2C)cc(OC)c1OC` (centres undefined): the AC50 in assay [11] is 0.394 µM (active).
Take `COc1ccc(-c2c(-c3ccc(C#N)cc3)oc(=O)c3cc(OC)c(OC)cc23)cc1`: the IC50 in assay [10] was > 20 µM (inactive).
As for `Cc1ccc(C(C)C)c(OCCN=C(S)Nc2cccc3ccccc23)c1`, in assay [1], the 50% inhibitory concentration (IC50) was 6.63 µM (not active).
Regarding `Cc1[nH]c2ccccc2c1CCN(Cc1cccnc1)C(S)=Nc1cccc(F)c1`, the values for the EC50 in assay [15] and in assay [16] were 0.698 µM (active) and > 60 µM (not active), respectively. Moreover, the half-maximal inhibitory concentration (IC50) in assay [1] is recorded as 44.4 µM (not active).
For the molecule `N#CC1=C(N)Oc2cc(N)ccc2C1c1ccc(F)cc1` (centres undefined), the AC50 in [11] is 2.78 µM (active).
For `COc1ccc(NC(=O)c2cccs2)cn1`, the values for the EC50 in “cells [12]” and in “cells [13]” were > 350 µM (not active) and 48.3 µM (active), respectively.
As for `CC(=O)c1ccc(-c2ccc(C(=O)N3CCN(c4ccc(F)cc4)CC3)o2)cc1`, the IC50 in assay [1] was 6.42 µM (not active).
Turning to `CC(C)(O)[C@H]1O[C@H]2CC[C@@]3(C)[C@@](O)(CC[C@H]4Cc5c([nH]c6ccccc56)[C@@]43C)C2=CC1=O` [PAXILLINE], the EC50 was 16.7 µM (active) in [2] and 12.3 µM (active) in [3]. For the same molecule, the CC50 in assay [17] was > 40 µM (active).
As for `C/C(=N\Nc1ccc([N+](=O)[O-])cc1)c1cccc(N)c1`, in assay [18], the CC50 was 22 µM (active). For the same molecule, the results for the half-maximal activity concentration (AC50) (in assay [11]; on Cytochrome P450 2D6) were 0.14 µM (active) and 17.8 µM (inconclusive), respectively.
`COC(=O)c1c(NC(=O)CC2Nc3ccccc3NC2=O)sc(C)c1C` (centres undefined): the EC50 in assay [2] was > 300 µM (not active); in assay [3] it was > 300 µM (inconclusive). Moreover, the figures for the AC50 on Cytochrome P450 2D6 and on Cytochrome P450 2C9 were 25.1 µM (inconclusive) and 17.8 µM (inconclusive), respectively.
With `CCN(CC)C(=O)CSc1nnc(-c2cc(OC)cc(OC)c2)o1`, the IC50 in assay [1] is given as > 50 µM (not active).
For the molecule `COc1ccc(N2CCN(C(=O)c3ccc(C)cc3Cl)CC2)cc1`, the AC50 in [11] was 3.97 µM (active).
With `CN(C)c1ccnc(Oc2ccc(C(C)(C)C)cc2)c1C#N`, in assay [1], the IC50 is given as 4.48 µM (not active).
For the molecule `O=C(NCCCn1ccnc1)C1CCN(S(=O)(=O)c2cc([N+](=O)[O-])ccc2Cl)CC1`, the IC50 in assay [10] was > 20 µM (inactive).
As to `CC(C)c1cc(NC(=O)CCl)on1`, the EC50 in the assay on BJ [6] is > 150 µM (not active); in the assay with BJ [7], > 150 µM (not active); in the assay with BJ [8], > 150 µM (not active); in assay [9], > 150 µM (inconclusive).
For the molecule `CCCCc1ccc(NC(=O)C2CCN(S(C)(=O)=O)CC2)cc1`, the EC50 in “cells [12]” and in the assay “cells [13]” was > 350 µM (not active) each time.
As to `Cc1ccc(/C=C/C(=O)O)cc1S(=O)(=O)N1CCCCC1`, the 50% effective concentration (EC50) is given as > 300 µM (not active) in assay [2], > 300 µM (not active) in assay [3], > 112 µM (not active) in [4] and > 112 µM (not active) in [5].
As for `COc1ccccc1NC(=O)c1cc(S(=O)(=O)N2CCC3(CC2)OCCO3)ccc1F`, the IC50 in [10] is > 20 µM (inactive).
As to `O=C(CCN1C(=O)S/C(=C\c2ccc(F)cc2)C1=O)Nc1ccc(C(=O)O)c(O)c1`, the EC50 in the assay “cells [12]” was > 350 µM (not active); in “cells [13]”, 3.94 µM (active). Besides, the IC50 in “cells [19]” is 7.61 µM (active).
In the case of `Cc1ccc(OCCNC(=O)CCc2nc(O)c3c4c(sc3n2)CCCC4)cc1`, the EC50 in “cells [12]” and in “cells [13]” was > 350 µM (not active) in each case.
Take `CC1=NN2C(=N)/C(=C\c3cc(C)n(Cc4ccccc4)c3C)C(=O)N=C2S1`: the EC50 in the assay “cells [12]” and in the assay “cells [13]” was > 350 µM (not active) in each case. The AC50 in assay [11] is 0.405 µM (active).
As for `CCOC(=O)CSc1nc(C(C)(C)C)cc(C(F)(F)F)c1C#N`, the IC50 in assay [10] is > 20 µM (inactive).
